Test results published in patent publication US20100190832A1, “Mechanism-based inhibitors of transthyretin amyloidosis: studies with biphenyl ethers and structural templates” (NATIONAL INSTITUTE OF IMMUNOLOGY., priority 2008, published 2010).
Where two headings read alike, the source gives them in different places.

Tests used:
TTR tetramer = target: T1, TTR tetramer (Homo sapiens, UniProt P02766); experiment: Urea denaturation (tetramer dissociation, tryptophan fluorescence); type: biochemical; details: TTR 1.8 μM, inhibitor 5.4 μM (1:3), 6 M urea, 25° C., up to […]
T1 construct: made in house

WT-TTR = target: T2, WT-TTR (Homo sapiens, UniProt P02766); experiment: Stagnant acid-mediated TTR aggregation (fibril formation) assay, turbidity at 340 nm; type: biochemical; details: for remaining activity at 7.2 µM / remaining activity at 21.6 µM / remaining activity at 50 µM / remaining activity at 100 µM: 72 h; for remaining activity at 50 µM: read-out: % FF at 50 μM; for inhibition of TTR fibrillization: inhibitor 21.6 μM; for remaining activity at 100 µM / inhibition at 100 µM: pH 4.4, compound 100 μM; for remaining activity at 100 µM: read-out: % FF; for inhibition at 100 µM: read-out: % Inhibition
T2 construct: made in house
Description: Stagnant Acid-Mediated TTR Aggregation Assay.
After 1 h, the samples were diluted with 0.5 ml of 200 mM sodium acetate buffer containing 100 mM KCl and 1 mM EDTA. Samples after mild vortexing were incubated at 37° C. for the desired amount of time without stirring to evaluate the efficacy of the inhibitors. The extent of aggregation was probed by turbidity measurements at 340 nm using Tecan GENios microplate reader. […] The extent of TTR fibril formation in the absence of inhibitor was defined to be 100%. […] All experiments were done in triplicate. […] The IC50 was determined by plotting mean of % inhibition vs log and fitted to sigmoid equation:
(§1) The experiments were conducted at 25° C. After 1 h, the samples were diluted with 0.5 mL of 200 mM sodium acetate buffer pH 4.4 containing 100 mM KCl and 1 mM EDTA, vortexed, and incubated at 37° C. for 72 h. […] The stoichiometry of the binding of the inhibitors was determined by HPLC as described by Green et al., N. S. Palaninathan, S, L, Sacchettini, J. e. […] Dissociation constant of binding of these compounds to TTR was determined by fluorescence titration, and data were fitted into the Adair equation for two bind mg.

TTR [1] = target: T3, TTR (Homo sapiens, UniProt P02766); experiment: Time course (kinetics) of fibril formation, turbidity at 340 nm for 3 h; type: biochemical; details: TTR 7.2 μM, inhibitor 21.6 μM, 37° C., pH 4.4, 3 h
T3 construct: made in house
Description: Time Course of Fibril Formation. The kinetics of inhibition was studied by incubating […] TTR with […] of different inhibitors in 100 µl of 5 mM phosphate buffer pH 7.2 for 30 min in a 96 microwell plate. […] of 0.2 M sodium acetate buffer pH 4.4 containing 1 mM EDTA and 100 mM KCl was added. The difference in turbidity was assessed by measuring the change in absorbance at 340 nm on Tecan GEnios microplate reader using Magellan software. For kinetics, parameters were set for 30 cycles at 37° C. at the interval of 5 min each and 2 min orbital shaking (low speed) between cycles and 10 sec shaking (normal speed) before measurement. All experiments were performed in triplicates. Change in absorbance at 340 nm was plotted against time in the presence and absence of inhibitors initial rate of fibril formation was calculated from the slope by linear fitting of the data.
All experiments were performed three times in triplicates. Change in absorbance (mean of three different experiments) at 340 nm was plotted against time in the presence and absence of inhibitors. Initial rate of fibril form action was calculated from the value of the slope by linear fitting of the change in absorbance at 340 nm as a function of time.

TTR [2] = target: T3, TTR; experiment: Dissociation constant by fluorescence titration (Adair equation, two sites); type: binding
Description: as §1
Small aliquots of 1 mM ligands solutions were successively added to the […] in 100 mM sodium acetate buffer pH 4.4 at […] under constant stirring. After each addition sample was left for 2 min. […] Readings were corrected for buffer blank, dilution and inner filter effect. The inner filter effect was corrected by using the following equation,
From the titration data the dissociation constant was determined by fitting data in following Adair equation for two binding sites-

TTR fibers = target: T4, TTR fibers (Homo sapiens, UniProt P02766); experiment: Fibril disruption assay; type: biochemical; details: three doses (7.2 μM each), 15 days, Th-T fluorescence
T4 construct: made in house
Description: Fibril Disruption Assay. […] The disruption was followed for 7 days by turbidity measurements at 340 nm and Th-T fluorescence. A second dose of the inhibitor (7.2 μM) was added after 24 h of incubation, and samples were incubated and monitored further for 5-6 days. After 15-20 days of incubation, samples were examined by transmission electron microscopy (TEM). All experiments were done thrice in triplicates each time.

[3] = pH 4.4; read-out: Dissociation Constant Kd1
[4] = pH 4.4; read-out: Dissociation Constant Kd2
[5] = 50% reduction in fibril formation, TTR 7.2 μM, pH 4.4, read-out: IC50 ± SE
[6] = biphenyl ether 50 μM, WT-TTR 7.2 μM
[7] = pH 4.4, TTR 7.2 μM, inhibitor 7.2 μM (1:1), pH 4.4, 37° C., no inhibitor = 100%, read-out: % FF 1:1
[8] = pH 4.4, TTR 7.2 μM, inhibitor 21.6 μM (1:3), pH 4.4, 37° C., no inhibitor = 100%, read-out: % FF 1:3
[9] = TTR amyloid formation, 37° C., read-out: IC50
[10] = Table 3, WT-TTR 7.2 μM, read-out: IC50

| SMILES | inhibition at 21.6 µM (TTR [1]) | Kd (TTR [2]; [3]) | disruption of preformed TTR fibers (TTR fibers) | IC50 (WT-TTR; [5]) | remaining activity at 50 µM (WT-TTR; [6]) | remaining activity at 7.2 µM (WT-TTR; [7]) | remaining activity at 21.6 µM (WT-TTR; [8]) | IC50 (WT-TTR; [9]) | IC50 (WT-TTR; [10]) | also measured |
| --- | --- | --- | --- | --- | --- | --- | --- | --- | --- | --- |
| N[C@H](Cc1cc(I)c(Oc2cc(I)c(O)c(I)c2)c(I)c1)C(=O)O (stereo in doubt) [Compound 13, thyroxine, reference compound] | 75% | – | – | – | – | – | – | – | – | protein dissociates (tetramer dissociation) (TTR tetramer): 27%; % FF 1:1 (WT-TTR; TTR 7.2 μM, inhibitor 7.2 μM (1:1), pH 4.4, 37° C., no inhibitor = 100%): 48%; % FF 1:3 (WT-TTR; TTR 7.2 μM, inhibitor 21.6 μM (1:3), pH 4.4, 37° C., no inhibitor = 100%): 7% |
| Oc1cc(Cl)ccc1Oc1ccc(Cl)cc1Cl [Compound 1, Triclosan, reference compound] | 62% | – | – | – | – | – | – | – | – | protein dissociates (tetramer dissociation) (TTR tetramer): 47%; remaining activity at 7.2 µM (WT-TTR; pH 4.4, read-out: % FF 1:1): 75%; remaining activity at 21.6 µM (WT-TTR; pH 4.4, read-out: % FF 1:3): 66%; remaining activity at 50 µM (WT-TTR): 41%; inhibition at 21.6 µM (WT-TTR; pH 4.4, read-out: inhibition of fibril formation): ~24% |
| O=Cc1ccc(Oc2ccc(Cl)cc2Cl)c(O)c1 [Compound 2] | > 80% | 0.0139 ± 0.00501 µM | – | – | – | – | – | – | – | Kd (TTR [2]; read-out: Dissociation Constant Kd2; pH 4.4): 0.525 ± 0.0601 µM |
| Oc1cc(CCl)ccc1Oc1ccc(Cl)cc1Cl [Compound 3] | > 80% | – | – | – | – | – | – | – | – | remaining activity at 7.2 µM (WT-TTR; pH 4.4, read-out: % FF 1:1): 5%; remaining activity at 21.6 µM (WT-TTR; pH 4.4, read-out: % FF 1:3): 0%; remaining activity at 50 µM (WT-TTR): 0% |
| OCc1ccc(Oc2ccc(Cl)cc2Cl)c(O)c1 [Compound 4] | > 80% | 0.0003 ± 0.00014 µM | more effective | 1.36 ± 0.05 µM | 11.5% | 12% | 2.6% | 0.47 to 3.5 µM | 1.36 µM | Kd (TTR [2]; [4]): 13.8 ± 1.02 µM |
| COc1cc(CCl)ccc1Oc1ccc(Cl)cc1Cl [Compound 5] | > 80% | – | more effective | 3.16 ± 0.04 µM | 0% | 26% | 0% | – | 3.16 µM | IC50 (WT-TTR): 0.47 to 3.5 µM |
| COc1cc(C(=O)O)ccc1Oc1ccc(Cl)cc1Cl [Compound 6] | > 80% | – | more effective | – | 0% | 10% | 0% | – | – | – |
| O=C(O)c1ccc(Oc2ccc(Cl)cc2Cl)c(O)c1 [Compound 7] | > 80% | 0.027 ± 0.00803 µM | – | 2.59 ± 0.14 µM | 0% | 29% | 13.3% | 0.47 to 3.5 µM | 2.59 µM | protein dissociates (tetramer dissociation) (TTR tetramer): 21%; Kd (TTR [2]; [4]): 0.003 ± 0.00078 µM |
| COc1cc(CCl)ccc1Oc1ccccc1 [Compound 8, 3-Methoxy-4-phenoxybenzyl chloride] | > 80% | – | – | 1.94 ± 0.09 µM | 0% | 25% | 0% | 0.47 to 3.5 µM | 1.94 µM | – |
| COc1cc(C=O)ccc1Oc1ccccc1 [Compound 9] | > 80% | 0.088 ± 0.0101 µM | more effective | 1.31 ± 0.08 µM | 0% | 12% | 0% | 0.47 to 3.5 µM | 1.31 µM | – |
| Oc1ccccc1-c1nnc(S)o1 [Compound 11] | > 80% | 0.042 ± 0.00235 µM | – | 3.1 ± 0.05 µM | – | 21% | 0% | 0.47 to 3.5 µM | – | Kd (TTR [2]; [4]): 0.0726 ± 0.0103 µM; inhibition of TTR fibrillization (WT-TTR; TTR 7.2 μM): completely |
| O=C(Nc1nnc[nH]1)c1c(Cl)ccc(Cl)c1Cl [Compound 12] | > 80% | 0.12 ± 0.0321 µM | more effective | 1.06 ± 0.01 µM | – | 11% | 3.6% | 0.47 to 3.5 µM | – | inhibition of TTR fibrillization (WT-TTR; TTR 7.2 μM): completely |
| CCOC(=O)c1sc(=S)n(-c2cccc3ccccc23)c1N [Compound R052-0949] | – | – | – | – | – | – | – | – | – | remaining activity at 100 µM (WT-TTR; WT-TTR 7.2 μM, pH 4.4, 37° C.): 146%; inhibition at 100 µM (WT-TTR; WT-TTR 7.2 μM, pH 4.4, 37° C.): 0% |
| CCOC(=O)c1c(N)sc(C(=O)Nc2cc(C)cc(C)c2)c1C [Compound R052-1596] | – | – | – | – | – | – | – | – | – | remaining activity at 100 µM (WT-TTR; WT-TTR 7.2 μM, pH 4.4, 37° C.): 87.8%; inhibition at 100 µM (WT-TTR; WT-TTR 7.2 μM, pH 4.4, 37° C.): 12.2% |
| CCOC(=O)c1c(N)sc(C(=O)NC2CCCCC2)c1C [Compound R052-1597] | – | – | – | – | – | – | – | – | – | remaining activity at 100 µM (WT-TTR; WT-TTR 7.2 μM, pH 4.4, 37° C.): 58.1%; inhibition at 100 µM (WT-TTR; WT-TTR 7.2 μM, pH 4.4, 37° C.): 41.9% |
